Assay results taken from US10220019B2, “Method for treating pulmonary fibrosis comprising application of dimethylamino micheliolide” (Tianjin International Joint Academy of Biotechnology & …, priority 2016, dated 2019).

Test system: mouse pulmonary fibrosis model
Test: Mouse pulmonary fibrosis model and pharmacodynamics test of ACT001
Type: in vivo, Kunming mice (male)
Experimental: a) Preparation of ACT001 solution: 1 g ACT001 powder was weighed and dissolved in 100 mL 0.9% normal saline solution to prepare 10 mg/mL solution. When it was fully dissolved, it was filter sterilized with 0.22 μm filter for use, and was freshly prepared each time before use. The preparation and the use of the solution should be performed in a sterile biosafety cabinet.
b) Preparation of ethyl viologen hydrate solution: 2 g ethyl viologen hydrate was weighed and dissolved in 100 mL 0.9% normal saline to prepare 20 mg/mL solution. When it was fully dissolved, it was filter sterilized with 0.22 μm filter for use, and was freshly prepared each time before each use. The preparation and the use of the solution should be performed in a sterile biosafety cabinet.
Randomly divide 36 mice into three groups: normal group, control group (pulmonary fibrosis model group), ACT001 group (administering ACT001 after modeling), and 12 animals per group. Conduct a one-off intragastric administration of 0.15 mL of 0.9% normal saline to each animal in the normal group; and conduct a one-off intragastric administration of 0.15 mL of the ethyl viologen hydrate solution to each animal in the control group and ACT001 group.
3 weeks after modeling, drug treatment was given to the mice. Conduct an intragastric administration of 0.1 mL of 0.9% normal saline to each animal in the normal and control groups, and conduct an intragastric administration of 0.1 mL ACT001 aqueous solution to each animal in the ACT001 group. Once every 2 days.
At the third week after modeling, the second week after drug administration, and the third week after drug administration, four mice were each taken from the normal group, control group and ACT001 group, sacrificed by breaking their necks, their lung tissues were sampled, after fixing the tissues with 10% formalin for two days, the fixing solution on the surface of the lung tissues was washed away with running water, the lung tissues were then dehydrated with a pathological tissue dehydration machine, the tissues were embed in paraffin, the embedded tissues were sectioned, H.E. staining was conducted and slides were covered before observing the changes of the lung tissues under microscope.

[1] = after 3 weeks of drug administration
[2] = second week after ACT001 administration, intragastric 0.1 mL once every 2 days

In the case of `CC1=C2CC[C@@](C)(O)C2[C@H]2OC(=O)[C@@H](CN(C)C)[C@@H]2CC1` (stereo partly shown) [ACT001, dimethylamino micheliolide], the “difference in pulmonary coefficient versus the normal group” value [1] is reported as “no significant difference”, the “pulmonary coefficient lower relative to the control group” value [1] is reported as 0.47% and the average lung weight (after 3 weeks of drug administration, normal group 0.4012 g, control group 0.5983 g) is reported as 0.4034 g. For the same molecule, the “average of pulmonary coefficient (lung wet mass/body weight*100%)” value (after 3 weeks of drug administration, normal group 0.81%, control group 1.32%) was 0.85%, the average body weight (after 3 weeks of drug administration, normal group 49.2352 g, control group 45.4575 g) was 47.576 g and the “blood supply in the lung tissue (lung tissue morphology under stereoscopic microscope)” value (second week after ACT001 administration, intragastric 0.1 mL of 10 mg/mL solution once every 2 days, started 3 weeks after modeling, compared with control group) was “significant improvement of blood supply in the lung tissue”. For the same molecule, the “alveolar structures (lung tissue section, H.E. staining)” value [2] was “restored to normal”, the “deposition in the lung interstitials (lung tissue section, H.E. staining)” value [2] was “significantly reduced” and the “fibrosis degree of the lung (lung tissue section, H.E. staining)” value (second week after ACT001 administration, intragastric 0.1 mL once every 2 days, compared with control group) was “significant improvement for the fibrosis degree of the lung”. The “level of pulmonary fibrosis (lung tissue morphology and tissue section)” value (third week after ACT001 administration, compared with control group) was “significantly reduced”.
